Assay results from ChEMBL document CHEMBL1201862, “PubChem BioAssay data set” (2004).
The source made the active and inactive calls.

What was measured:
[1] = molecular target: T1, DNA dC->dU-editing enzyme APOBEC-3A (Homo sapiens, UniProt P31941); experiment: A3A deaminase inhibition for selectivity – biochemical, dose response (AID 504722); assay type: functional
[2] = molecular target: Glucose-6-phosphate 1-dehydrogenase (Homo sapiens, UniProt P11413); experiment: inhibition of Homo sapiens G6PD, dose series – biochemical, fluorescence, selectivity assay for P. falciparum G6PD inhibitor project, dose response (AID 504792); assay type: functional
[3] = molecular target: T2, DNA dC->dU-editing enzyme APOBEC-3G (Homo sapiens, UniProt Q9HC16); experiment: Dose Response confirmation of small molecule APOBEC3G DNA Deaminase Inhibitors via a fluorescence-based single-stranded DNA deaminase assay. [Related pubchem assays (depositor defined):AID493012, AID493028]; assay type: functional
[4] = molecular target: Glyceraldehyde-3-phosphate dehydrogenase (Homo sapiens, UniProt P04406)
[5] = molecular target: T3, C-C chemokine receptor type 6 (Homo sapiens, UniProt P51684); experiment: antagonism of CCR6 beta-arrestin recruitment – cell-based, luminescent beta-arrestin readout, dose response (AID 504728); assay type: functional
T3 sequence (P51684 whole entry): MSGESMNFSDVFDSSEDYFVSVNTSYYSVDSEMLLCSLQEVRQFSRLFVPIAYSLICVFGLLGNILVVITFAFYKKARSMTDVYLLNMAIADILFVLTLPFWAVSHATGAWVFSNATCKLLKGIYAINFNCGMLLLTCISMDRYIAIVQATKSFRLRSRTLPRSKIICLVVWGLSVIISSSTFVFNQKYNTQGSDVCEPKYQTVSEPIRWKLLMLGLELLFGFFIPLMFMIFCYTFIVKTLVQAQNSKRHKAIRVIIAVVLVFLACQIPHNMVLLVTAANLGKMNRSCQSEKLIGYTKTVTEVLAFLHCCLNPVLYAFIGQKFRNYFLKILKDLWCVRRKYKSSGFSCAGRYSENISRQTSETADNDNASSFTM

Beta-galactosidase = Beta-galactosidase (Escherichia coli, UniProt Q8VNN2); experiment: detection-enzyme interference by beta-gal modulators – biochemical, E. coli enzyme, set 3, artefact control for CCR6 antagonist project, dose response (AID 504712); assay type: functional
[6] = molecular target: T4, Voltage-gated N-type calcium channel alpha-1B subunit/Amyloid beta A4 precursor protein-binding family A member 1 (Homo sapiens, UniProt Q00975+Q02410); experiment: disruptors of Mint-PDZ/N-type channel peptide interaction – biochemical, HTRF, set 2, SAR follow-up (AID 434980); assay type: functional
[7] = molecular target: T4, Voltage-gated N-type calcium channel alpha-1B subunit/Amyloid beta A4 precursor protein-binding family A member 1; experiment: disruptors of Mint-PDZ/N-type channel peptide interaction – biochemical, HTRF, SAR follow-up (AID 2489); assay type: functional
[8] = molecular target: T4, Voltage-gated N-type calcium channel alpha-1B subunit/Amyloid beta A4 precursor protein-binding family A member 1; assay type: protein assay
[9] = molecular target: T4, Voltage-gated N-type calcium channel alpha-1B subunit/Amyloid beta A4 precursor protein-binding family A member 1; assay type: protein assay; remark: listed apart in the source
cells [10] = experiment: cells
[11] = THP-1 cell cytotoxicity, dose response, cytotoxicity control for non-replicating M. tuberculosis project (AID 489025); assay type: functional
[12] = Vero E6 cell cytotoxicity, dose response, cytotoxicity control for non-replicating M. tuberculosis project, secondary assay (AID 492998); assay type: functional, VeroE6; details: Vero C1008
cells [13] = assay type: functional
[14] = molecular target: T1, DNA dC->dU-editing enzyme APOBEC-3A; experiment: Dose Response confirmation of small molecule APOBEC3A DNA Deaminase Inhibitors via a fluorescence-based single-stranded DNA deaminase assay. [Related pubchem assays (depositor defined):AID493011, AID493024]; assay type: functional
[15] = molecular target: T2, DNA dC->dU-editing enzyme APOBEC-3G; assay type: functional
Hexokinase = molecular target: T5, Hexokinase (Trypanosoma brucei, UniProt Q38C41); experiment: Confirmation assay for inhibitors of Trypanosoma brucei hexokinase 1-Analogue-first series. [Related pubchem assays (depositor defined):AID1430, AID1632, AID2516, AID2560, AID2579, AID2600, AID449725, AID492951]; assay type: functional
T5 sequence (Q38C41 whole entry): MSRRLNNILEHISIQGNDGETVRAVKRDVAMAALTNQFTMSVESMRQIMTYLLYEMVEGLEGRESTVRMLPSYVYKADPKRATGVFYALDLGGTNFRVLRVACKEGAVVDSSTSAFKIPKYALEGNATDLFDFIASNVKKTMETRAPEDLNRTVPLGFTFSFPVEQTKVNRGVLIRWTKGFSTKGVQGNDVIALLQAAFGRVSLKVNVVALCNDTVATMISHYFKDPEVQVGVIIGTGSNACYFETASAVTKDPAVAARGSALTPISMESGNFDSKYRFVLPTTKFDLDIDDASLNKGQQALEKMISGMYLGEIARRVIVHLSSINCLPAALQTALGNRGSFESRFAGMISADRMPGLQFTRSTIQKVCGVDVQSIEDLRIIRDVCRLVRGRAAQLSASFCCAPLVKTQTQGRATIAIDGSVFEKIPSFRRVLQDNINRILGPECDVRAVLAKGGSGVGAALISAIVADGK

[16] = molecular target: Peroxisome proliferator-activated receptor gamma/Nuclear receptor coactivator 2 (Homo sapiens, UniProt P37231); assay type: functional;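 also: agonist potency for raising coactivator recruitment to the receptor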
[17] = molecular target: Peroxisome proliferator-activated receptor gamma/Nuclear receptor coactivator 1 (Homo sapiens, UniProt P37231); assay type: functional;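 also: agonist potency as compounds enhance coactivator SRC-1 recruitment to PPARgamma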
[18] = molecular target: Peroxisome proliferator-activated receptor gamma/Nuclear receptor coactivator 3 (Homo sapiens, UniProt P37231); assay type: functional;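 also: agonist potency for raising coactivator recruitment to the receptor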
[19] = molecular target: T6, Heat shock factor protein 1 (Mus musculus, UniProt P38532); experiment: enhancement of HSF1-driven luciferase signal – cell-based, NIH3T3, luminescence, dose retest, confirmation (AID 435004); assay type: functional;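 also: stress induced by proteasome inhibitor MG132 added 30 min after compound; luciferase reporter driven by HSF1 response element in NIH3T3 cells; actives raise luminescence as potentiators of the MG132 stress response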
T6 sequence (P38532 whole entry): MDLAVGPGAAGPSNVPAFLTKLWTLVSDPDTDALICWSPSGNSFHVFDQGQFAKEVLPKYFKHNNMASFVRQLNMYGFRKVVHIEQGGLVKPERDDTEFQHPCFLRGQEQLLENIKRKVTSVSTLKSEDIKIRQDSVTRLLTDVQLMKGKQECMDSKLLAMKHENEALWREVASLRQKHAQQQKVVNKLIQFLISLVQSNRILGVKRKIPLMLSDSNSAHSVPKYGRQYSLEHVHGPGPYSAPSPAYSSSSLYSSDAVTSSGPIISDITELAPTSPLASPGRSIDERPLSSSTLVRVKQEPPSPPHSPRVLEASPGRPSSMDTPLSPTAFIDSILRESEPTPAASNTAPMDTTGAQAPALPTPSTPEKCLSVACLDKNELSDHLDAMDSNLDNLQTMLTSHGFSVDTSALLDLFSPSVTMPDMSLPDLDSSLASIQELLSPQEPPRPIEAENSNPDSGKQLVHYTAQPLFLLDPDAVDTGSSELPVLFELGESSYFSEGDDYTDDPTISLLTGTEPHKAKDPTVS

[20] = molecular target: T7, Acyl-homoserine lactone acylase PvdQ (Pseudomonas aeruginosa (strain LESB58), UniProt Q9I194); experiment: PvdQ acylase enzyme activity blockers – biochemical, fluorescence, plate reader and imaging, cherry-picks, dose response (AID 493231)
T7 sequence (Q9I194 whole entry): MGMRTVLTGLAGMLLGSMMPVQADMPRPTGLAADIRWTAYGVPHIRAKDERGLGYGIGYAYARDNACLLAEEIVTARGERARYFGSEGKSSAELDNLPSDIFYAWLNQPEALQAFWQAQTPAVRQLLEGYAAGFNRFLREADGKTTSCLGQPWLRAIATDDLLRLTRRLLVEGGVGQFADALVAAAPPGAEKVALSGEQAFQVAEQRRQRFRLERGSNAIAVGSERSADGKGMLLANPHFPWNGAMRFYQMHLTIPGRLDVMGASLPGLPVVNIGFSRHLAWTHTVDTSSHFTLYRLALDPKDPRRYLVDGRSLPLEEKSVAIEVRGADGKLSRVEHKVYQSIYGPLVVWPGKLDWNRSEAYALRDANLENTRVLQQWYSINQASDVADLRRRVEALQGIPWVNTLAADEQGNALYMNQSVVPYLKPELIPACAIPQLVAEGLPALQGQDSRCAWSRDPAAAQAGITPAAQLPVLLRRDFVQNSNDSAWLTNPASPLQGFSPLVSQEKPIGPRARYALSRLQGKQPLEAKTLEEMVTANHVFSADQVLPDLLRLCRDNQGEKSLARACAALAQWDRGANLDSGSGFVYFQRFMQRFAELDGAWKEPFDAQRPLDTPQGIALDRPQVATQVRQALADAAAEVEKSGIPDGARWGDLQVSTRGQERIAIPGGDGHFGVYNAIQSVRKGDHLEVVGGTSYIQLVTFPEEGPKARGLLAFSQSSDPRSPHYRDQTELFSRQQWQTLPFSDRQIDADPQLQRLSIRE

[21] = viability loss in THP-1 monocytes – THP-1 cells, cytotoxicity control for Vif-APOBEC3G degradation inhibitor project, dose response (AID 1117359); assay type: functional; details: THP-1
Leucine aminopeptidase = molecular target: T8, Leucine aminopeptidase (Plasmodium falciparum 3D7, UniProt Q8IL11); experiment: P. falciparum M17LAP inhibitors, primary screen, biochemical, fluorogenic H-Leu-NHMec substrate, 1536-well (AID 1619); assay type: functional
T8 sequence (Q8IL11 whole entry): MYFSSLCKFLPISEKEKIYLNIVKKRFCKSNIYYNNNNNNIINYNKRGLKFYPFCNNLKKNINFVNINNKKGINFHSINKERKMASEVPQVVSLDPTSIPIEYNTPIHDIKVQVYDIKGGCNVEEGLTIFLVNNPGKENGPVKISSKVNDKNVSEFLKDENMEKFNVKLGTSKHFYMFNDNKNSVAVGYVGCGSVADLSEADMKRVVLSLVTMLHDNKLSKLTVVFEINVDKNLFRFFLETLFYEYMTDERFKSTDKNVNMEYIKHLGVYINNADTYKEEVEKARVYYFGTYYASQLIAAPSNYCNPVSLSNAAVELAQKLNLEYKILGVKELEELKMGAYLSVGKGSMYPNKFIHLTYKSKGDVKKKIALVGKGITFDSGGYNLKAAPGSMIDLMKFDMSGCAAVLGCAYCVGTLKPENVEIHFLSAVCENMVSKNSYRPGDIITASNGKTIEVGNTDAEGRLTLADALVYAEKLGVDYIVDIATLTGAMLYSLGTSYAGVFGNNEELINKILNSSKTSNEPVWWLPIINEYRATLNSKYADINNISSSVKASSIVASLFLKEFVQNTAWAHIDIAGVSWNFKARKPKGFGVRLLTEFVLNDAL

[22] = mitochondrial function rescue without frataxin homolog – Friedreich's ataxia, plus single-dose screen, dose response (AID 1465); assay type: functional;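 also: yeast depleted of Yfh1p frataxin homolog grown on glycerol needing respiration; WST-1 tetrazolium dye reduction as measure of cellular dehydrogenase metabolic activity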
[23] = molecular target: Neurotensin receptor type 1 (Homo sapiens, UniProt P30989); assay type: functional;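 also: Image-based confirmatory dose-response assay measuring agonist activity at NTR1; NTR1-expressing U2OS osteosarcoma cells imaged for beta-arrestin GFP spot formation; agonist potency where compounds increase beta-arrestin recruitment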
Chain of Neurotensin receptor type 1 (P30989 whole entry): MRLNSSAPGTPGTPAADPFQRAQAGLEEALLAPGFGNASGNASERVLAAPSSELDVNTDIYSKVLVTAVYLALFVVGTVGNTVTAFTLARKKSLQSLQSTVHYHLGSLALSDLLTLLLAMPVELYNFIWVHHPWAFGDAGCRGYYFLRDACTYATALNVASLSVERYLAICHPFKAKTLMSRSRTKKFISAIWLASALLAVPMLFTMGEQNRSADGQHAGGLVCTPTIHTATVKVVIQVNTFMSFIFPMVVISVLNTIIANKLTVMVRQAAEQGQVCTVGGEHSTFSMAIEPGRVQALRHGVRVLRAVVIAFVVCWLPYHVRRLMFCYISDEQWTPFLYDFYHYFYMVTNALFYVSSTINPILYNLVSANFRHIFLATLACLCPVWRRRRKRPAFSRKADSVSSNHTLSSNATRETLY

T1 sequence (P31941 whole entry): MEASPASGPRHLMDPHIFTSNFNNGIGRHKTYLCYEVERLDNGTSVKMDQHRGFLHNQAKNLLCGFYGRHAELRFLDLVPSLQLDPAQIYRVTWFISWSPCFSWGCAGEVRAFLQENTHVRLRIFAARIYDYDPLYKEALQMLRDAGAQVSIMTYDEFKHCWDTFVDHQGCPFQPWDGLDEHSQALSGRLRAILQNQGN
T2 sequence (Q9HC16 whole entry): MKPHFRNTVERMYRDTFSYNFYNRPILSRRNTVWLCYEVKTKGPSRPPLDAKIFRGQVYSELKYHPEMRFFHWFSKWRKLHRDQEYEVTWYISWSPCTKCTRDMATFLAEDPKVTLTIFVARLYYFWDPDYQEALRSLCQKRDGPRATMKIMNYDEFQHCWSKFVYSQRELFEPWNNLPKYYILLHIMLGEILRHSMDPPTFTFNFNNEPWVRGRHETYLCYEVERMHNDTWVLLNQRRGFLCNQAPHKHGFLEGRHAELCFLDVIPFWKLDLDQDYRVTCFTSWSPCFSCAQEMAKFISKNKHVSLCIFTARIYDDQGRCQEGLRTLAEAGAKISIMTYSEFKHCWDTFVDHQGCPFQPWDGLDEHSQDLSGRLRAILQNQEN
T4 sequence (Q00975 whole entry): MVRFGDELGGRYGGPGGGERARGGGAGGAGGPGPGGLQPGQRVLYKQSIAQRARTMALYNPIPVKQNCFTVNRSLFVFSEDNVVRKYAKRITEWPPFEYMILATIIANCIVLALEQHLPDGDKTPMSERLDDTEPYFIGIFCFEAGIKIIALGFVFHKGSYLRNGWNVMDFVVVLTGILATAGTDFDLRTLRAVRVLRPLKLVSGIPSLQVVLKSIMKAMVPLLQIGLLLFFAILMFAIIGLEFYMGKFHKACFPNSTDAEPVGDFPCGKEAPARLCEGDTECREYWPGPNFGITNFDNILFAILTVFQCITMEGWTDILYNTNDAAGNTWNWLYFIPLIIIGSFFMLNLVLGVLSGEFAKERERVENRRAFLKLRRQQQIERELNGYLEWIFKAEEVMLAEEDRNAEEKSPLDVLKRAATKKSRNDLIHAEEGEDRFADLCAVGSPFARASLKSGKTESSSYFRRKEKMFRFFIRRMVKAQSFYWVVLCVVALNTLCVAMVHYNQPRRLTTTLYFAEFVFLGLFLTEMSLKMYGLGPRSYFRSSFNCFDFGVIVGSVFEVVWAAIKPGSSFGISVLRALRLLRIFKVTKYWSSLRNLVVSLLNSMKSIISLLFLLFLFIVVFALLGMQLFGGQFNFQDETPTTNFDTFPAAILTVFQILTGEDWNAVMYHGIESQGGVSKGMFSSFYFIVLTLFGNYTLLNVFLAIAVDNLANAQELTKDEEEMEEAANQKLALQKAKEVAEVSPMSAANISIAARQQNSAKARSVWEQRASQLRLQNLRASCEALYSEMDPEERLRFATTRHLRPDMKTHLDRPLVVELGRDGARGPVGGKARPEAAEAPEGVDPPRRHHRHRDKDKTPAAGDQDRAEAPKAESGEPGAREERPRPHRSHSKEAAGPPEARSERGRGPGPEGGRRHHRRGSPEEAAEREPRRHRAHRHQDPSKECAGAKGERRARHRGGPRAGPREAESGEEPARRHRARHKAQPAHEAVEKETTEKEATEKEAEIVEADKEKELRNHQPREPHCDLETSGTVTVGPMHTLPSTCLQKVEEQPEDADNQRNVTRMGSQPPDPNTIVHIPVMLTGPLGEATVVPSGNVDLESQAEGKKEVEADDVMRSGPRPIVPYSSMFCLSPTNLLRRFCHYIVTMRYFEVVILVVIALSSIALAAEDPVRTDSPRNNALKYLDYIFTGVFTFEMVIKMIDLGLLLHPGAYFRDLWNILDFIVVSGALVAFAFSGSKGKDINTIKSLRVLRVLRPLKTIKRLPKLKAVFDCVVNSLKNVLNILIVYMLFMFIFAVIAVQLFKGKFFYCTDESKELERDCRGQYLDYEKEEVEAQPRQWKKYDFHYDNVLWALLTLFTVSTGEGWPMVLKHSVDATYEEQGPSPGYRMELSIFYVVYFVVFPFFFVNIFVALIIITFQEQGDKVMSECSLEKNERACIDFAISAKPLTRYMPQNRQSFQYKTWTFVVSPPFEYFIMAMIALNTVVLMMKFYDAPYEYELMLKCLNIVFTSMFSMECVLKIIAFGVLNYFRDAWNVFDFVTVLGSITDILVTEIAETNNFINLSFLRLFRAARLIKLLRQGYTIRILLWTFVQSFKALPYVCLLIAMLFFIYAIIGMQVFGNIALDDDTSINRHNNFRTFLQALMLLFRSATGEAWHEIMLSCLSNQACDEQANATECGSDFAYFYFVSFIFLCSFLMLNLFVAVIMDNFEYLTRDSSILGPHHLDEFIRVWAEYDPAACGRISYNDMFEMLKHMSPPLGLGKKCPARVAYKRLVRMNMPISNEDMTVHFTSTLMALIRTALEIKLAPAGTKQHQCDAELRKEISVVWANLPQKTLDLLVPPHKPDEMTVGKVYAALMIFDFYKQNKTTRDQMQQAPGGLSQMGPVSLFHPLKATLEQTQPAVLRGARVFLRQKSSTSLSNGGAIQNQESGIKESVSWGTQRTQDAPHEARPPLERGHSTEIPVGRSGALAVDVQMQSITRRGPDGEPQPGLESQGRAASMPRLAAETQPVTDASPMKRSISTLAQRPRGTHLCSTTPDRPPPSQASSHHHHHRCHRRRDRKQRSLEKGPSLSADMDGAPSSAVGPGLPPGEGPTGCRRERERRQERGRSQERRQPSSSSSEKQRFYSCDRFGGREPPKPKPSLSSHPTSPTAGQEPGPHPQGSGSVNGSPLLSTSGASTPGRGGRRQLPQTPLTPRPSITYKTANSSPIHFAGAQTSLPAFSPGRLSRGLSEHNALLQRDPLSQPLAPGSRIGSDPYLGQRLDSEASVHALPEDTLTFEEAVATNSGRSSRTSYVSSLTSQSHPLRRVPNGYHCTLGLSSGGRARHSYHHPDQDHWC
T4 sequence (Q02410 whole entry): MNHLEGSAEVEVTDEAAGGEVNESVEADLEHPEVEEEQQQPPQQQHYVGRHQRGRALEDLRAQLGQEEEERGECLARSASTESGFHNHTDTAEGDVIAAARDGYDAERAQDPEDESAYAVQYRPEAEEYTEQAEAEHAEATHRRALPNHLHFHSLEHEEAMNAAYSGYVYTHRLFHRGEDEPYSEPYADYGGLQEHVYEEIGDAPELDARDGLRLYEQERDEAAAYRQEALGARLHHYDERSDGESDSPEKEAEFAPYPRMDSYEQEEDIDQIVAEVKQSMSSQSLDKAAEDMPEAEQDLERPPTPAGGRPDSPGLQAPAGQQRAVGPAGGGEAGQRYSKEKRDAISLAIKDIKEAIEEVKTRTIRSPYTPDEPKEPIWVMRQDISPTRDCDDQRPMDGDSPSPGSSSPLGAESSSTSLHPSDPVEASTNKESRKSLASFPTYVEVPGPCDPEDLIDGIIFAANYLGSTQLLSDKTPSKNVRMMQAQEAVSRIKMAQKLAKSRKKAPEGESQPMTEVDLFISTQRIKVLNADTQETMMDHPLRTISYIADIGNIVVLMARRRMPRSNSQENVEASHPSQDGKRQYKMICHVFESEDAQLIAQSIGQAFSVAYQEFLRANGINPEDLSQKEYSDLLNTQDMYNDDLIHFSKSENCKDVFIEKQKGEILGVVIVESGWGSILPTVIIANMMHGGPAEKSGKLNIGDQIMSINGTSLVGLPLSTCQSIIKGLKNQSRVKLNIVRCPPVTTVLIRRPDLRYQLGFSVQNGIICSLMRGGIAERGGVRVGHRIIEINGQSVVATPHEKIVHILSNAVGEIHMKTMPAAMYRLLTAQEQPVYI
Chain of Glucose-6-phosphate 1-dehydrogenase (P11413 whole entry): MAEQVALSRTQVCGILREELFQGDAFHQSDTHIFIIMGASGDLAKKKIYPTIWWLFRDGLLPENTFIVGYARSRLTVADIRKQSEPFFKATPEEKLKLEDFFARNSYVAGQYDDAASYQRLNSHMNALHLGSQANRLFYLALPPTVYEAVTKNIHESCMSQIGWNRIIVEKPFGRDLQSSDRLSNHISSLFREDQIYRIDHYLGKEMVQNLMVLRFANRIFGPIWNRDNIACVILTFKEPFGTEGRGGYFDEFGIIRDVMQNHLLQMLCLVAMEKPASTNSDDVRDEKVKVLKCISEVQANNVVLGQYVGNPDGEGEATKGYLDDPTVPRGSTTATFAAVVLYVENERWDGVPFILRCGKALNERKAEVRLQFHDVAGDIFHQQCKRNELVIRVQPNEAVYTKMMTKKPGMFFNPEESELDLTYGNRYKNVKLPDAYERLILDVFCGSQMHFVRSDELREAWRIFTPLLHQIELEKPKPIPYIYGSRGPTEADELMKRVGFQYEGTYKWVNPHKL
Chain of Glyceraldehyde-3-phosphate dehydrogenase (P04406 whole entry): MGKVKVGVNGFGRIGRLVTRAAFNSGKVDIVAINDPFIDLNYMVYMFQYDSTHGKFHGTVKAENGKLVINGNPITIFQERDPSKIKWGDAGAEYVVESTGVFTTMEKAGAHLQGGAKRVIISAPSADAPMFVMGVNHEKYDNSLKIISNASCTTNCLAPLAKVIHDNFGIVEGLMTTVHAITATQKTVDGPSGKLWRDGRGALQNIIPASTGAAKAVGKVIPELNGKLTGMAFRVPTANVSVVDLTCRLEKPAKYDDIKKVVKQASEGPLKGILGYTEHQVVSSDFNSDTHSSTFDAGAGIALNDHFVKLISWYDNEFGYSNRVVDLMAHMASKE

O=C(NCCCN1CCOCC1)c1sc2cc([N+](=O)[O-])ccc2c1Cl
IC50 [1]: > 100 µM (inactive)
IC50 [2]: > 80 µM (inactive)
IC50 [3]: 6.34 µM (active)

CCN1CCN(C2=C(Cl)C(=O)N(c3cccc(C(F)(F)F)c3)C2=O)CC1
IC50 [4]: > 50 µM (inconclusive)

CC1(C)C2CC[C@]3(C)C(CC=C4[C@@H]5C[C@@](C)(CO)[C@@H]6C[C@@]5(CC[C@]43C)C(=O)O6)[C@@]2(C)CC[C@@H]1O (stereo partly drawn)
IC50 [5]: > 66.6 µM (inactive)
IC50 (Beta-galactosidase): > 66.6 µM (inactive)

CC(=O)Oc1ccc(N2C(=O)C3C4C=CC(O4)C3C2=O)cc1 (stereo not drawn)
IC50 [6]: 18.8 µM (active)
IC50 [7]: > 56.8 µM (inactive)

CC(C)NC(=O)COC(=O)/C=C/c1ccco1
IC50 [8]: 9.71 µM (active)
IC50 [9]: > 50 µM (inactive)

COc1cc(C)c(C)cc1S(=O)(=O)Nc1cccnc1
IC50 [4]: > 100 µM (not active)

Cc1ccc(-n2c(=O)c3sccc3n(Cc3cc(=O)n4ccccc4n3)c2=O)cc1
IC50 (cells [10]): 26.4 µM (active)

COc1ccc(NC2c3ncccc3C(=O)N2Cc2cccs2)cc1 (stereo not drawn)
IC50 (cells [10]): 45.6 µM (active)

CC(C)CCCN1C(=O)NC(=O)/C(=C\c2ccc[nH]2)C1=O
CC50 [11]: > 40 µM (active)
CC50 [12]: > 20 µM (active)
IC50 (cells [13]): 1.22 µM (active)

CCN1CCN(c2ccc(NC(=O)c3ccc4c(c3)OCCO4)cc2C)CC1
IC50 [14]: 4.49 µM (active)
IC50 [15]: 4.12 µM (active)

O=C(Nc1cc(Cl)ccc1C(=O)O)c1ccc(C2CC2)cc1
IC50 (Hexokinase): 5.77 µM (active)

N#Cc1ccc(-c2ccc(Cl)cc2)nc1Oc1ccc(F)cc1
EC50 [16]: > 79.4 µM (not active)
EC50 [17]: > 79.4 µM (not active)
EC50 [18]: > 79.4 µM (not active)
EC50 [19]: > 260 µM (inconclusive)

N#CC(Sc1ccccn1)c1ccc(Cl)cc1 (stereo not drawn)
AC50 [20]: 7.09 µM (active)

Oc1ccc(NCc2ccccc2OCc2ccccc2)cc1
EC50 [16]: > 79.4 µM (not active)
EC50 [17]: > 79.4 µM (not active)
EC50 [18]: > 79.4 µM (not active)
IC50 [2]: > 80 µM (inactive)
CC50 [21]: 22.7 µM (active)

Cc1ccsc1/C=N/n1c(S)nnc1-c1ccccn1
IC50 [1]: > 100 µM (inactive)
IC50 [3]: 4.89 µM (active)

CCCCCCCC(=O)Nc1cc(Cl)ccc1C(=O)O
IC50 (Hexokinase): > 25 µM (inactive)

COCCNC(=O)/C(C#N)=C/c1ccc(N2CCOCC2)o1
IC50 (Leucine aminopeptidase): 113 µM (active)
EC50 [22]: > 100 µM (active)

Cc1cccc(N2C(=O)C3C(C2=O)C2(C)C=CC3(C)O2)c1 (stereo not drawn)
IC50 [6]: 8.93 µM (active)
IC50 [7]: 27.6 µM (active)

COc1ccc(/N=C(\C)C2=C(O)SCC2=O)cc1
AC50 [20]: 12.4 µM (active)

Cc1cc(C)cc(N2CC(c3nc4ccccc4n3C)CC2=O)c1 (stereo not drawn)
IC50 [14]: 9.16 µM (active)
IC50 [15]: 16.1 µM (active)

O=C(/C=C/c1cccnc1)c1ccc(F)c(F)c1
EC50 [23]: 11.4 µM (active)

COc1ccc2c(=O)n(-c3ccccc3)sc2c1
IC50 (Hexokinase): 3 µM (active)

CCOc1ccc(CN2C(=O)c3ccccc3C2=O)cc1C(=O)NC1CC(C)(C)NC(C)(C)C1
IC50 [14]: 2.87 µM (active)
IC50 [15]: 3.18 µM (active)
